# Source: patent US6812229B1, “Carbamate derivative and agricultural/horticultural fungicide” (Kumiai Chemical Industry Co., Ltd., priority 1999, dated 2004)
# System: Septoria nodorum
# Assay: Test for preventive effect on Septoria leaf blotch of wheat
# Assay type: in vivo
# Conditions: wheat seedlings (Norin-61-go), two-leaf stage, 50 ppm active ingredient, 10 ml per pot, evaluated 10 days after inoculation with Septoria nodorum
# Description: [table] 10 Wheat seeds (variety: Norin-61-go) were sown in each plastic pot having a diameter of 6 cm, and grown in a greenhouse. […] Then, the seedlings were inoculated with Septoria nodorum […] controlled in a greenhouse. 10 Days after the inoculation, the total diseased area of the first leaves in each pot was observed and evaluated on the basis of the standards shown in Table 21.
row,SMILES,Evaluation (total diseased area of the first leaves)
1,"COC(=O)NCc1cc(C(C)=NOCc2cccc(C)n2)ccc1Cl (single isomer, unassigned) [A-286]",A (No diseased area)
2,COC(=O)NCc1cc(C(C#N)=NOCc2ccccc2)ccc1Cl [A-7],A (No diseased area)
3,COC(=O)NCc1cc(C(C#N)=NOCc2ccccc2Cl)ccc1Cl [A-8],B (Diseased area of less than 5%)
4,COC(=O)NCc1cc(C(C#N)=NOCc2ccccc2)ccc1C [A-20],B (Diseased area of less than 5%)
5,COC(=O)NCc1cc(C(C#N)=NOCc2ccccc2Cl)ccc1C [A-21],A (No diseased area)
6,CCCCON=C(C)c1ccc(Cl)c(CNC(=O)OC)c1 [A-52],A (No diseased area)
7,CCC(C)ON=C(C)c1ccc(Cl)c(CNC(=O)OC)c1 (stereo not drawn) [A-53],A (No diseased area)
8,COC(=O)NCc1cc(C(C)=NOCC(C)C)ccc1Cl [A-54],A (No diseased area)
9,COC(=O)NCc1cc(C(C)=NOCC2CC2)ccc1Cl [A-56],B (Diseased area of less than 5%)
10,COC(=O)NCc1cc(C(C)=NOCC(F)(F)F)ccc1Cl [A-70],A (No diseased area)
11,COC(=O)NCc1cc(C(C)=NOc2ccccc2)ccc1Cl [A-73],A (No diseased area)
12,COC(=O)NCc1cc(C(C)=NOCc2ccccc2OC)ccc1Cl [A-93],A (No diseased area)
13,COC(=O)NCc1cc(C(C)=NOCc2cccc(OC)c2)ccc1Cl [A-94],A (No diseased area)
14,COC(=O)NCc1cc(C(C)=NOCc2ccc(OC)cc2)ccc1Cl [A-95],A (No diseased area)
15,COC(=O)NCc1cc(C(C)=NOCc2cccc(C#N)c2)ccc1Cl [A-102],A (No diseased area)
16,COC(=O)NCc1cc(C(C)=NOCc2ccc(C#N)cc2)ccc1Cl [A-103],B (Diseased area of less than 5%)
17,CCON=C(CC)c1ccc(Cl)c(CNC(=O)OC)c1 [A-111],A (No diseased area)
18,COC(=O)NCc1cc(C(C)=NOCc2cccc(OC)c2)cc(C)c1Cl [A-157],A (No diseased area)
19,COC(=O)NCc1cc(C(C)=NOCc2ccc(OC)cc2)cc(C)c1Cl [A-158],A (No diseased area)
20,COC(=O)NCc1cc(C(C)=NOCc2cccc(C(F)(F)F)c2)cc(C)c1Cl [A-159],A (No diseased area)
21,COC(=O)NCc1cc(C(C)=NOCc2ccc(C(F)(F)F)cc2)cc(C)c1Cl [A-160],B (Diseased area of less than 5%)
22,COC(=O)NCc1cc(C(C)=NOCC=C(Cl)Cl)ccc1Cl [A-185],A (No diseased area)
23,CC=CCON=C(C)c1ccc(Cl)c(CNC(=O)OC)c1 [A-189],A (No diseased area)
24,C=CCCON=C(C)c1ccc(Cl)c(CNC(=O)OC)c1 [A-198],A (No diseased area)

row,SMILES,Evaluation (total diseased area of the first leaves)
1,COC(=O)NCc1cc(C(C)=NOCC=Cc2ccccc2)ccc1Cl [A-201],A (No diseased area)
2,COC(=O)NCc1cc(C(C)=NOCc2ccccc2)ccc1Cl [A-206],B (Diseased area of less than 5%)
3,COC(=O)NCc1cc(C(C)=NOCc2ccccc2Cl)ccc1Cl [A-207],A (No diseased area)
4,COC(=O)NCc1cc(C(C)=NOCc2cccc(Cl)c2)ccc1Cl [A-208],B (Diseased area of less than 5%)
5,COC(=O)NCc1cc(C(C)=NOC(C)c2ccccc2)ccc1Cl (stereo not drawn) [A-216],A (No diseased area)
6,COC(=O)NCc1cc(C(C)=NOCc2ccccc2OC(F)(F)F)ccc1Cl [A-217],A (No diseased area)
7,COC(=O)NCc1cc(C(C)=NOCc2cccc(OC(F)(F)F)c2)ccc1Cl [A-218],A (No diseased area)
8,COC(=O)NCc1cc(C(C)=NOCc2ccccc2C#N)ccc1Cl [A-220],A (No diseased area)
9,COC(=O)NCc1cc(C(C)=NOCC2OCCO2)ccc1Cl [A-241],B (Diseased area of less than 5%)
10,COC(=O)NCc1cc(C(C)=NOCc2ccc3ccccc3c2)ccc1Cl [A-248],B (Diseased area of less than 5%)
11,CCCCCCCON=C(C)c1ccc(Cl)c(CNC(=O)OC)c1 [A-251],A (No diseased area)
12,COC(=O)NCc1cc(C(C)=NOCc2cccc(Cl)c2Cl)ccc1Cl [A-252],A (No diseased area)
13,COC(=O)NCc1cc(C(C)=NOCc2cc(Cl)ccc2Cl)ccc1Cl [A-254],A (No diseased area)
14,COC(=O)NCc1cc(C(C)=NOCc2ccc(Cl)c(Cl)c2)ccc1Cl [A-256],A (No diseased area)
15,COC(=O)NCc1cc(C(C)=NOCc2cc(Cl)cc(Cl)c2)ccc1Cl [A-257],A (No diseased area)
16,COC(=O)NCc1cc(C(C)=NOCc2cc(C)ccc2C)ccc1Cl [A-258],B (Diseased area of less than 5%)
17,COC(=O)NCc1cc(C(C)=NOCc2cccc([N+](=O)[O-])c2)ccc1Cl [A-266],B (Diseased area of less than 5%)
18,COC(=O)NCc1cc(C(C#N)=NOCCc2ccccc2)ccc1Cl [A-277],B (Diseased area of less than 5%)
19,COC(=O)NCc1cc(C(C)=NOCc2cccc(C(=O)OC)c2)ccc1Cl [A-278],B (Diseased area of less than 5%)
20,COC(=O)NCc1cc(C(C)=NOCc2cc(C)cc(C)c2)ccc1Cl [A-279],B (Diseased area of less than 5%)
21,COC(=O)NCc1cc(C(C)=NOCc2cccc(Cl)n2)ccc1Cl [A-285],A (No diseased area)
22,CCC(=NOCC(C)=NOC)c1ccc(Cl)c(CNC(=O)OC)c1 [A-293],A (No diseased area)
23,COC(=O)NCc1cc(C(C)=NOCc2ccccc2Cl)ccc1C [A-294],B (Diseased area of less than 5%)
24,COC(=O)NCc1cc(C(C)=NOCc2ccccc2C)ccc1C [A-295],B (Diseased area of less than 5%)

row,SMILES,Evaluation (total diseased area of the first leaves)
1,CCC(=NOCc1ccccc1Cl)c1ccc(Cl)c(CNC(=O)OC)c1 [A-296],A (No diseased area)
2,CCC(=NOCc1ccccc1C(F)(F)F)c1ccc(Cl)c(CNC(=O)OC)c1 [A-297],B (Diseased area of less than 5%)
3,CCC(=NOCc1ccccc1)c1ccc(Cl)c(CNC(=O)OC)c1 [A-303],A (No diseased area)
4,CCC(=NOCc1cccc(OC)c1)c1ccc(Cl)c(CNC(=O)OC)c1 [A-304],A (No diseased area)
5,CCC(=NOCc1ccccn1)c1ccc(Cl)c(CNC(=O)OC)c1 [A-305],A (No diseased area)
6,COC(=O)NCc1cc(C(C)=NOCc2ncccc2C)ccc1Cl [A-306],A (No diseased area)
7,COC(=O)NCc1cc(C(C)=NOC(C)c2ccccc2Cl)ccc1Cl (stereo not drawn) [A-309],B (Diseased area of less than 5%)
8,COC(=O)NCc1cc(C(C)=NOC(C)c2cccc(Cl)c2)ccc1Cl (stereo not drawn) [A-310],A (No diseased area)
9,COC(=O)NCc1cc(C(C)=NOC(C)c2ccc(Cl)cc2)ccc1Cl (stereo not drawn) [A-311],A (No diseased area)
10,COC(=O)NCc1cc(C(C)=NOC(C)c2cccc(OC)c2)ccc1Cl (stereo not drawn) [A-312],A (No diseased area)
11,COC(=O)NCc1cc(C(C)=NOC(C)c2cccc(C(F)(F)F)c2)ccc1Cl (stereo not drawn) [A-313],A (No diseased area)
12,COC(=O)NCc1cc(C(C)=NOCc2ccccc2C(F)(F)F)ccc1C [A-314],A (No diseased area)
13,COC(=O)NCc1cc(C(C)=NOCc2cccc(OC)c2)ccc1C [A-315],A (No diseased area)
14,COC(=O)N(Cc1cccc(OC)c1)Cc1cc(C(C)=NOCc2cccc(OC)c2)ccc1C [A-322],A (No diseased area)
15,COC(=O)NCc1cc(C(C)=NOCc2ccccc2)ccc1F [A-323],A (No diseased area)
16,COC(=O)NCc1cc(C(C)=NOCc2ccccc2F)ccc1F [A-324],A (No diseased area)
17,COC(=O)NCc1cc(C(C)=NOCc2ccccc2Cl)ccc1F [A-325],A (No diseased area)
18,COC(=O)NCc1cc(C(C)=NOCc2ccccc2Br)ccc1F [A-326],A (No diseased area)
19,COC(=O)NCc1cc(C(C)=NOCc2ccccc2C)ccc1F [A-327],A (No diseased area)
20,COC(=O)NCc1cc(C(C)=NOCc2ccccc2C(F)(F)F)ccc1F [A-328],A (No diseased area)
21,COC(=O)NCc1cc(C(C)=NOCc2cccc(OC)c2)ccc1F [A-329],A (No diseased area)
22,COC(=O)NCc1cc(C(C)=NOCc2ccccn2)ccc1F [A-330],B (Diseased area of less than 5%)
23,COC(=O)NCc1cc(C(C)=NOCc2ccccn2)ccc1C [A-333],A (No diseased area)
24,COC(=O)NCc1cc(C(C)=NOCc2ccc(C)cn2)ccc1Cl [A-334],A (No diseased area)
